PubChem BioAssay AID2060610 (Molecular Pharmacology Branch, DTP, NCI, 2025)
Several values for one entry are separate records, joined by “and”; a condition that tells them apart may be missing. Equal entries are not always repeated.

System: 616215-338-R-J1-PDC complex spheroids, viability % test/control
Experiment: Anticancer human tumor 616215-338-R-J1-PDC patient-derived colon adenocarcinoma cell line growth inhibition [CLK]
Conditions: for viability, T/C: stronger effect = lower value; active = viability on the fitted dose curve at most 10% of control; inactive = the rest
Excerpt: A high-throughput screen of multi-cell type tumor spheroids was designed to identify active combinations of […] and targeted small molecules. Complex spheroids include a stromal component modeled by human endothelial cells (HUVEC) and fibroblasts modeled by human mesenchymal stem cells (MSCs). The concentration ranges selected for each drug and investigational agent were based upon clinically achievable concentrations if the clinical Cmax of the agent was known.
Compounds. The drugs and investigational agents: cirtuvivint (SM08502; NSC835563), CC-671 (NSC850746), vemurafenib (NSC761431), tapotoclax (NSC804041), sotorasib (NSC818433), adagrasib (NSC831453), MRTX-1133 (NSC836407), BAY2416964 (NSC825713), copanlisib (NSC816437), inavolisib (NSC800729), abemaciclib (NSC768073), osimertinib (NSC779217), entinostat (NSC756642), eltanexor (KPT-8602, NSC794443), venetoclax (NSC766270), ceralasertib (NSC777638), bortezomib (NSC756655), olaparib (NSC753686), talazoparib (NSC767125), alisertib (NSC759677), peposertib (NSC802822), gemcitabine (NSC613327), 5-fluorouracil (NSC19893), SN-38 (NSC673596), oxaliplatin (NSC266046), paclitaxel (NSC125973), and doxorubicin (NSC123127), were obtained from the National Cancer Institute (NCI) Developmental Therapeutics Program Chemical Repository. The FDA-approved anticancer drug set is available from the Developmental Therapeutics Program at https://dtp.cancer.gov/organization/dscb/obtaining/available plates.htm. […] The stock solutions were prepared in dimethyl sulfoxide (DMSO, Sigma-Aldrich, St. Louis, MO, cat. D2650), except for the platinum complexes which were prepared in saline (Quality Biological, Gaithersburg, MD, cat. 114-055-101), at 800-fold the tested concentration and stored at -70 degrees C prior to their use. All drugs and investigational agents were tested over a range starting from a high concentration at or near the clinical Cmax and decreasing in half-log increments. If the clinical Cmax for an agent had not been determined, the highest concentration tested was 10 microM.
Cell Culture. All cells were maintained in an incubator at 37 degrees C and 5% CO2 with 95% humidity. The PDC lines were cultured according to standard operating procedures established by the NCI PDMR. Briefly, all PDCs were thawed and cultured in Matrigel-coated flasks prepared with a working solution of 1X Ham's F-12 nutrient mix, without supplementation (Invitrogen, Waltham, MA, cat. 11765054), 100 U/mL penicillin-streptomycin (Invitrogen, cat. 15140122), and 2.5% Matrigel (Corning Inc., Corning, NY, cat. 354248) for the first three passages. The 947758-054-R-J2-PDC line was cultured in 6B/Colon 1A media, which includes advanced DMEM/F-12 (Thermo Fisher Scientific, cat. 12634028), 10 mM HEPES (Thermo Fisher Scientific, cat. 15630080), 1X GlutaMAX supplement (Thermo Fisher Scientific, cat. 35050061), 0.1 mg/mL primocin (InvivoGen, cat. ant-pm-2), 10% defined fetal bovine serum, heat inactivated (HyClone Laboratories Inc., cat. SH30070.03HI), 1.25 mM N-Acetyl-L-cysteine (Sigma-Aldrich, cat. A9165), 10 mM nicotinamide (Sigma-Aldrich, cat. N0636), 1X B-27 supplement (Thermo Fisher Scientific, cat. 17504044), 1X N-2 supplement (Thermo Fisher Scientific, cat. 17502048), and 10 microM Y-27632 dihydrochloride (Tocris Bioscience, cat. 1254). The 876862-298-R-J1-PDC was cultured in 6E media, which includes all 6B/Colon 1A media components plus 50% L-WRN conditioned media (ATCC, cat. CRL-3276), 50 ng/mL recombinant human EGF recombinant protein (hEGF; Thermo Fisher Scientific, cat. PHG0311), 10 ng/mL recombinant human fibroblast growth factor 10 (hGFG-10; PeproTech, cat. 100-26), 1 ng/mL recombinant human fibroblast growth factor 2 (hFGF-2; PeproTech, cat. 100-18B), and 1 µM prostaglandin E2 (PGE2; Tocris, cat. 2296). The 227483-062-R1-J1-PDC line was cultured in Panc media, containing all 6E components except hFGF-2, with the addition of 500 nM SB-431542 (Selleckchem, cat. S1067) and 10 nM gastrin (Tocris, cat. 3006). […]

[1] = curve of first compound, second compound 0.0316 µM
[2] = curve of first compound, second compound 0.1 µM
[3] = curve of first compound, second compound 0.316 µM
[4] = curve of first compound, second compound 1 µM
[5] = curve of first compound, second compound 3.16 µM
[6] = curve of first compound, second compound 10 µM
[7] = second compound 0.0316 µM, first compound 0.0316 µM
[8] = second compound 0.0316 µM, first compound 0.1 µM
[9] = second compound 0.0316 µM, first compound 0.316 µM
[10] = second compound 0.0316 µM, first compound 1 µM
[11] = second compound 0.0316 µM, first compound 3.16 µM
[12] = second compound 0.0316 µM, first compound 10 µM
[13] = second compound 0.1 µM, first compound 0.0316 µM
[14] = second compound 0.1 µM, first compound 0.1 µM
[15] = second compound 0.1 µM, first compound 0.316 µM
[16] = second compound 0.1 µM, first compound 1 µM
[17] = second compound 0.1 µM, first compound 3.16 µM
[18] = second compound 0.1 µM, first compound 10 µM
[19] = second compound 0.316 µM, first compound 0.0316 µM
[20] = second compound 0.316 µM, first compound 0.1 µM
[21] = second compound 0.316 µM, first compound 0.316 µM
[22] = second compound 0.316 µM, first compound 1 µM
[23] = second compound 0.316 µM, first compound 3.16 µM
[24] = second compound 0.316 µM, first compound 10 µM
[25] = second compound 1 µM, first compound 0.0316 µM
[26] = second compound 1 µM, first compound 0.1 µM
[27] = second compound 1 µM, first compound 0.316 µM
[28] = second compound 1 µM, first compound 1 µM
[29] = second compound 1 µM, first compound 3.16 µM
[30] = second compound 1 µM, first compound 10 µM
[31] = second compound 3.16 µM, first compound 0.0316 µM
[32] = second compound 3.16 µM, first compound 0.1 µM
[33] = second compound 3.16 µM, first compound 0.316 µM
[34] = second compound 3.16 µM, first compound 1 µM
[35] = second compound 3.16 µM, first compound 3.16 µM
[36] = second compound 3.16 µM, first compound 10 µM
[37] = second compound 10 µM, first compound 0.0316 µM
[38] = second compound 10 µM, first compound 0.1 µM
[39] = second compound 10 µM, first compound 0.316 µM
[40] = second compound 10 µM, first compound 1 µM
[41] = second compound 10 µM, first compound 3.16 µM
[42] = second compound 10 µM, first compound 10 µM
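Also: spheroids exposed to agents for 7 days.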
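For viability, T/C in this document: 100% = DMSO vehicle wells.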

CC(CO)NC(=O)c1cc(-c2ccc(Cl)cc2)nn(-c2cnn(C)c2)c1=O (stereo not given)
inactive: viability, T/C (compound 0.0316 µM) 90.7% and 94.5% | viability, T/C (compound 0.1 µM) 95.2% and 99.6% | viability, T/C (compound 0.316 µM) 101% and 96% | viability, T/C (compound 1 µM) 102% and 99.1% | viability, T/C (compound 3.16 µM) 110% and 95% | viability, T/C (compound 10 µM) 103% and 106%
> 10000 nM: IC50 (curve of compound)

CCc1c2c(nc3ccc(O)cc13)-c1cc3c(c(=O)n1C2)COC(=O)[C@]3(O)CC
inactive: viability, T/C (compound 0.00316 µM) 110% and 111% | viability, T/C (compound 0.01 µM) 69.5% and 63.4% | viability, T/C (compound 0.0316 µM) 36.6% and 33.2% | viability, T/C (compound 0.1 µM) 17.5% and 24.2%
active: viability, T/C (compound 1 µM) 5.51% and 7.45%
19.8 nM and 17.4 nM: IC50 (curve of compound)
11% and 16.1%: viability, T/C (compound 0.316 µM)

CC1(C)CCC(CN2CCN(c3ccc(C(=O)NS(=O)(=O)c4ccc(NCC5CCOCC5)c([N+](=O)[O-])c4)c(Oc4cnc5[nH]ccc5c4)c3)CC2)=C(c2ccc(Cl)cc2)C1 + CNC(=O)c1ccc(Nc2nc(OC3CCCC3)c3c(-c4ccc5nc(C)oc5c4)c[nH]c3n2)c(OC)c1
416 nM: IC50 [2]
< 31.6 nM: IC50 [3] | IC50 [4] | IC50 [5] | IC50 [6]
inactive: viability, T/C [7] 101% | viability, T/C [8] 99.1% | viability, T/C [9] 92.8% | viability, T/C [10] 100% | viability, T/C [11] 80% | viability, T/C [12] 91.5% | viability, T/C [13] 55.3% | viability, T/C [14] 50.6% | viability, T/C [15] 50.9% | viability, T/C [16] 42.8% | viability, T/C [17] 18.5% | viability, T/C [18] 56.7% | viability, T/C [19] 46.6% | viability, T/C [20] 49% | viability, T/C [21] 45.4% | viability, T/C [22] 33.9% | viability, T/C [23] 21.2% | viability, T/C [24] 45.7% | viability, T/C [25] 50.9% | viability, T/C [26] 48.2% | viability, T/C [27] 46.2% | viability, T/C [28] 35.9% | viability, T/C [29] 20.5% | viability, T/C [30] 48.9% | viability, T/C [31] 38.8% | viability, T/C [32] 42.5% | viability, T/C [33] 44.6% | viability, T/C [34] 33.3% | viability, T/C [35] 24.8% | viability, T/C [36] 50.7% | viability, T/C [37] 36.3% | viability, T/C [38] 42% | viability, T/C [39] 41.7% | viability, T/C [40] 41% | viability, T/C [41] 27.2% | viability, T/C [42] 41.7%
> 10000 nM: IC50 [1]

Nc1ccn(C2OC(CO)C(O)C2(F)F)c(=O)n1 (stereo not given) + CNC(=O)c1ccc(Nc2nc(OC3CCCC3)c3c(-c4ccc5nc(C)oc5c4)c[nH]c3n2)c(OC)c1
< 31.6 nM: IC50 [1] | IC50 [2] | IC50 [3] | IC50 [4] | IC50 [5] | IC50 [6]
inactive: viability, T/C [7] 21.9% | viability, T/C [8] 14.5% | viability, T/C [9] 18.9% | viability, T/C [10] 14.9% | viability, T/C [11] 20.3% | viability, T/C [12] 18.9% | viability, T/C [13] 18.2% | viability, T/C [14] 18.4% | viability, T/C [15] 16.8% | viability, T/C [16] 14.6% | viability, T/C [17] 21% | viability, T/C [18] 17.4% | viability, T/C [19] 22.1% | viability, T/C [20] 17.2% | viability, T/C [21] 18.1% | viability, T/C [22] 17.1% | viability, T/C [23] 18.7% | viability, T/C [24] 20.2% | viability, T/C [25] 18.7% | viability, T/C [26] 15.9% | viability, T/C [27] 16.9% | viability, T/C [28] 17.8% | viability, T/C [29] 16.6% | viability, T/C [30] 15.6% | viability, T/C [31] 19.1% | viability, T/C [32] 15.8% | viability, T/C [33] 18.6% | viability, T/C [34] 18.1% | viability, T/C [35] 21.9% | viability, T/C [36] 18.3% | viability, T/C [37] 21.8% | viability, T/C [38] 15% | viability, T/C [39] 18.6% | viability, T/C [40] 18.2% | viability, T/C [41] 23.1% | viability, T/C [42] 17.9%

O=c1[nH]cc(F)c(=O)[nH]1 + CN1CCN(c2cc(C(=O)Nc3cc4cc(-c5cnn(C)c5)ccc4cn3)ccn2)CC1
inactive: viability, T/C [7] 98.6% | viability, T/C [8] 119% | viability, T/C [9] 64.4% | viability, T/C [10] 46.2% | viability, T/C [11] 42.4% | viability, T/C [12] 50.6% | viability, T/C [13] 121% | viability, T/C [14] 109% | viability, T/C [15] 61.2% | viability, T/C [16] 49.6% | viability, T/C [17] 38.7% | viability, T/C [18] 41.1% | viability, T/C [19] 31.9% | viability, T/C [20] 34.7% | viability, T/C [21] 41.8% | viability, T/C [22] 33.3% | viability, T/C [23] 29.6% | viability, T/C [24] 26.6%
796 nM: IC50 [1]
active: viability, T/C [25] 0.14% | viability, T/C [26] 1.14% | viability, T/C [27] 2.43% | viability, T/C [28] 0.08% | viability, T/C [29] 2.58% | viability, T/C [30] 2.28% | viability, T/C [31] 0.08% | viability, T/C [32] 0.42% | viability, T/C [33] 1.29% | viability, T/C [34] 0.07% | viability, T/C [35] 0.09% | viability, T/C [36] 0.13% | viability, T/C [37] 0.07% | viability, T/C [38] 1.38% | viability, T/C [39] 4.56% | viability, T/C [40] 0.1% | viability, T/C [41] 2.34% | viability, T/C [42] 0.19%
692 nM: IC50 [2]
< 31.6 nM: IC50 [3] | IC50 [4] | IC50 [5] | IC50 [6]
